According to US9663495B2 (YUHAN CORPORATION, priority 2013, dated 2017):

Key:
GPR119 [1] = biological target: T1, GPR119 (Homo sapiens, UniProt Q8TDV5); test: cAMP Accumulation Assay (GPR119 CRE-bla CHO-K1 cells, LiveBLAzer-FRET B/G); assay type: cell-based; details: (Emax of the test compound/Emax of MBX-2982)x100, 5 hours incubation
T1 construct: host or cells: CHO-K1 (GPR119 CRE-bla, doxycycline-induced)
T1 sequence (Q8TDV5 1-335): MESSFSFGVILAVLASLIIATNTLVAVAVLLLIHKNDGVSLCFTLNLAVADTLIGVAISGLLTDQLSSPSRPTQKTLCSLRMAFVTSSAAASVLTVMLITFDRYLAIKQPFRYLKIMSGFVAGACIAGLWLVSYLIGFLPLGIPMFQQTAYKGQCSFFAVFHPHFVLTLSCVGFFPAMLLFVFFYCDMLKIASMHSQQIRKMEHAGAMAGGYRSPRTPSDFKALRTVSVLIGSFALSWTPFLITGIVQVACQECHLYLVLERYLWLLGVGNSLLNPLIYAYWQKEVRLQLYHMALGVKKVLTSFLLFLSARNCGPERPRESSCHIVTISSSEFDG

GPR119 [2] = biological target: T1, GPR119; test: as above; assay type: cell-based; details: for EC50: 5 hours incubation; for Emax (Fold): maximum activity, response ratio versus non-treated control group
Protocol: 32 μl of an assay medium (DMEM supplemented with GlutaMax™ 99%, dialyzed FBS 1%, non-essential amino acid 1 mM, HEPES 25 mM, penicillin 100 U/ml, and streptomycin 100 μg/ml) was added to each well of a 384 black well plate and then the GPR119 CRE-bla CHO-K1 cells (Invitrogen) were seeded in 1×10^4 cells per well. Doxycycline was dissolved in the assay medium in the concentration of 1 μg/ml. The resulting solution (4 μl) was added to each well, which was then incubated in a 5% CO 2 incubator at 37° C. for about 20 to 24 hours. Each test compounds were diluted with the assay medium to prepare 10 samples, which have concentrations ranging from […], respectively. Each samples (8 μl) was added to each well, which was then incubated in a 5% CO2 incubator at 37° C. for 5 hours. In case of the control group, the well was treated with a solution (8 μl) prepared by diluting dimethyl sulfoxide (DMSO) in the assay medium to 1%. The substrate mixture (8 μl) was added to each well, which was then left under darkness at room temperature for 2 hours. The substrate mixture contains the followings: 1 mM LiveBLAzer™-FRET B/G(CCF4-AM) substrate 6 μl, solution B 60 μl, solution C 904 μl, and solution D 30 μl.
Fluorescence intensity was determined under the wavelength conditions of 400 nm/465 nm (excitation/emission) for the blue channel and 400 nm/535 nm (excitation/emission) for the green channel, with the fluorescence microplate reader (SpectraFluor Plus. TECAN). The net activity of each well was calculated by subtracting the average value of the cell-free control group from the value of the unstimulated (i.e., non-treated) control group or the stimulated (i.e., test compound-treated) group at each wavelength. MBX-2982 (Metabolex) was used as a control drug. The response ratio was calculated by dividing the net signal ratio (465 nm/535 nm) of the control drug or the test compound by the net signal ratio (465 nm/535 nm) of the non-treated control group. The relative ratio (R.R) was calculated by dividing the maximum activity [Emax (fold)] of the test compound (i.e., % activity in comparison with the background) by the maximum activity [Emax (fold)] of the control drug (MBX-2982) [Emax (% RR)=(Emax of the test compound/Emax of MBX-2982)×100]. EC50 (half maximal effective concentration) was calculated using the software for statistical analysis “Prism 5.0 (GraphPad)”, based on the values obtained according to concentrations of the test compounds.

| Structure (SMILES) | Emax (% RR) (GPR119 [1]) | EC50 (GPR119 [2]) | Emax (Fold) (GPR119 [2]) |
| --- | --- | --- | --- |
| CCc1cnc(N2CCN(c3ncc(-c4ccc(-n5cnn(CCOC)c5=O)c(F)c4)cc3C#N)CC2)nc1 [Example 31, 5-(4-(1-(2-methoxyethyl)-5-oxo-1H-1,2,4-triazol-4(5H)-yl)-3-fluorophenyl)-2-(4-(5-ethylpyrimidin-2-yl)piperazin-1-yl)nicotinonitrile] | 148.7 % RR | 10 nM | 3.4 Fold |
| CC(C)n1ncn(-c2ccc(-c3cnc(N4CCC(c5nnc(C(F)(F)F)o5)CC4)c(C#N)c3)cc2F)c1=O [Example 74, 5-(3-fluoro-4-(1-isopropyl-5-oxo-1H-1,2,4-triazol-4(5H)-yl)phenyl)-2-(4-(5-(trifluoromethyl)-1,3,4-oxadiazol-2-yl)piperidin-1-yl)nicotinonitrile] | 104.2 % RR | 5.6 nM | 3.0 Fold |
| CCCn1ncn(-c2ccc(-c3cnc(N4CCN(C(=O)OC(C)(C)C)C[C@@H]4C)nc3)cc2F)c1=O [Example 2, (S)-tert-butyl 4-(5-(3-fluoro-4-(5-oxo-1-propyl-1H-1,2,4-triazol-4(5H)-yl)phenyl)pyrimidin-2-yl)-3-methylpiperazin-1-carboxylate] | 101.6 % RR | 31.9 nM | 3.3 Fold |
| CC(C)n1ncn(-c2ccc(-c3cnc(N4CCC(c5nnc(C(F)(F)F)o5)CC4)c(C#N)c3)cc2)c1=O [Example 73, 5-(4-(1-isopropyl-5-oxo-1H-1,2,4-triazol-4(5H)-yl)phenyl)-2-(4-(5-(trifluoromethyl)-1,3,4-oxadiazol-2-yl)piperidin-1-yl)nicotinonitrile] | 101.3 % RR | 8.2 nM | 2.9 Fold |
| COCCn1ncn(-c2ccc(-c3cnc(N4CCN(C(=O)OC(C)(C)C)C[C@@H]4C)nc3)cc2F)c1=O [Example 4, (S)-tert-butyl 4-(5-(3-fluoro-4-(1-(2-methoxyethyl)-5-oxo-1H-1,2,4-triazol-4(5H)-yl)phenyl)pyrimidin-2-yl)-3-methylpiperazin-1-carboxylate] | 108.0 % RR | 54.9 nM | 3.5 Fold |
| COCCn1ncn(-c2ccc(-c3cnc(N4CCC(c5nnc(C(F)(F)F)o5)CC4)c(C#N)c3)cc2F)c1=O [Example 76, 5-(3-fluoro-4-(1-(2-methoxyethyl)-5-oxo-1H-1,2,4-triazol-4(5H)-yl)phenyl)-2-(4-(5-(trifluoromethyl)-1,3,4-oxadiazol-2-yl)piperidin-1-yl)nicotinonitrile] | 101.8 % RR | 19.6 nM | 2.9 Fold |
| CCc1cnc(N2CCN(c3ncc(-c4ccc(-n5cnn(C)c5=O)c(F)c4)cn3)[C@@H](C)C2)nc1 [Example 7, (S)-4-(4-(2-(4-(5-ethylpyrimidin-2-yl)-2-methylpiperazin-1-yl)pyrimidin-5-yl)-2-fluorophenyl)-1-methyl-1H-1,2,4-triazol-5(4H)-one] | 111.5 % RR | 26 nM | 2.5 Fold |
| CC(C)n1ncn(-c2ccc(-c3cnc(N4CCN(C(=O)OC(C)(C)C)C[C@@H]4C)nc3)cc2F)c1=O [Example 3, (S)-tert-butyl 4-(5-(3-fluoro-4-(1-isopropyl-5-oxo-1H-1,2,4-triazol-4(5H)-yl)phenyl)pyrimidin-2-yl)-3-methylpiperazin-1-carboxylate] | 113.4 % RR | 62 nM | 3.4 Fold |
| CCc1cnc(N2CCN(c3ncc(-c4ccc(-n5cnn(CC#N)c5=O)c(F)c4)cc3C#N)[C@@H](C)C2)nc1 [Example 18, (S)-5-(4-(1-(cyanomethyl)-5-oxo-1H-1,2,4-triazol-4(5H)-yl)-3-fluorophenyl)-2-(4-(5-ethylpyrimidin-2-yl)-2-methylpiperazin-1-yl)nicotinonitrile] | 104.6 % RR | 17 nM | 2.9 Fold |
| CCCn1ncn(-c2ccc(-c3cnc(N4CCN(c5noc(C(C)C)n5)CC4)c(C#N)c3)cc2F)c1=O.Cl [Example 49, 5-(3-fluoro-4-(5-oxo-1-propyl-1H-1,2,4-triazol-4(5H)-yl)phenyl)-2-(4-(5-isopropyl-1,2,4-oxadiazol-3-yl)piperazin-1-yl)nicotinonitrile hydrochloride] | 144.7 % RR | 7.3 nM | 4.2 Fold |
| CCc1cnc(N2CCN(c3ncc(-c4ccc(-n5cnn(COC)c5=O)c(F)c4)cc3C#N)[C@@H](C)C2)nc1 [Example 22, (S)-2-(4-(5-ethylpyrimidin-2-yl)-2-methylpiperazin-1-yl)-5-(3-fluoro-4-(1-(methoxymethyl)-5-oxo-1H-1,2,4-triazol-4(5H)-yl)phenyl)nicotinonitrile] | 119.3 % RR | 10.2 nM | 3.2 Fold |

These reach a lower EC50 (GPR119 [2]). Values come first.

| Emax (% RR) (GPR119 [1]) | EC50 (GPR119 [2]) | Emax (Fold) (GPR119 [2]) | Structure (SMILES) |
| --- | --- | --- | --- |
| 113.0 % RR | 5.4 nM | 3.5 Fold | CCc1cnc(N2CCN(c3ncc(-c4ccc(-n5cnn(CCN(C(=O)OC(C)(C)C)C(C)C)c5=O)c(F)c4)cc3C#N)[C@@H](C)C2)nc1 [Example 19, (S)-tert-butyl 2-(4-(4-(5-cyano-6-(4-(5-ethylpyrimidin-2-yl)-2-methylpiperazin-1-yl)pyridin-3-yl)-2-fluorophenyl)-5-oxo-4,5-dihydro-1H-1,2,4-triazol-1-yl)ethyl(isopropyl)carbamate] |
| 133.6 % RR | 3.8 nM | 3.9 Fold | CCc1cnc(N2CCN(c3ncc(-c4ccc(-n5cnn(C)c5=O)cc4)cc3C#N)CC2)nc1 [Example 39, 2-(4-(5-ethylpyrimidin-2-yl)piperazin-1-yl)-5-(4-(1-methyl-5-oxo-1H-1,2,4-triazol-4(5H)-yl)phenyl)nicotinonitrile] |
| 122.7 % RR | 1.3 nM | 3.5 Fold | CCCn1ncn(-c2ccc(-c3cnc(N4CCC(c5nc(C(C)C)no5)CC4)c(C#N)c3)cc2F)c1=O [Example 62, 5-(3-fluoro-4-(5-oxo-1-propyl-1H-1,2,4-triazol-4(5H)-yl)phenyl)-2-(4-(3-isopropyl-1,2,4-oxadiazol-5-yl)piperidin-1-yl)nicotinonitrile] |
| 123.8 % RR | 2.4 nM | 3.6 Fold | CCn1ncn(-c2ccc(-c3cnc(N4CCC(c5nc(C(C)C)no5)CC4)c(C#N)c3)cc2)c1=O [Example 65, 5-(4-(1-ethyl-5-oxo-1H-1,2,4-triazol-4(5H)-yl)phenyl)-2-(4-(3-isopropyl-1,2,4-oxadiazol-5-yl)piperidin-1-yl)nicotinonitrile] |
| 149.4 % RR | 3.1 nM | 4.0 Fold | CCc1cnc(N2CCN(c3ncc(-c4ccc(-n5cnn(CN6CCN(C)CC6)c5=O)c(F)c4)cc3C#N)[C@@H](C)C2)nc1 [Example 27, (S)-2-(4-(5-ethylpyrimidin-2-yl)-2-methylpiperazin-1-yl)-5-(3-fluoro-4-(1-((4-methylpiperazin-1-yl)methyl)-5-oxo-1H-1,2,4-triazol-4(5H)-yl)phenyl)nicotinonitrile] |
| 130.8 % RR | 2.6 nM | 3.8 Fold | CC(C)c1nc(C2CCN(c3ncc(-c4ccc(-n5cnn(CN6CCCC6)c5=O)c(F)c4)cc3C#N)CC2)no1 [Example 68] |
